Results published in ChEMBL document CHEMBL4382212, “Tetrazolylpropan-2-ones as inhibitors of fatty acid amide hydrolase: Studies on structure-activity relationships and metabolic stability” (Eur J Med Chem, 2018).

Assay: Partition coefficient, log P of the compound at 5 mM by reversed phase HPLC analysis
Assay type: physicochemical
Settings: octanol/water

Row | Structure (SMILES) | logP at 5000 µM
1 | COC(=O)c1ccc(-c2nnn(CC(=O)C(C)Oc3ccc(Oc4ccc(C(F)(F)F)cc4)cc3)n2)cc1 (centres undefined) | 6.2
2 | CC(Oc1ccc(Oc2ccc(Cl)cc2)cc1)C(=O)Cn1nnc(-c2ccc(C(=O)O)cc2)n1 (centres undefined) | 3.3
3 | CC(Oc1ccc(Oc2ccc(Cl)cc2)cc1)C(=O)Cn1nnc(-c2ccc(Cl)cc2)n1 (centres undefined) | 6.8
4 | CC(Oc1ccc(Oc2ccc(C(F)(F)F)cc2)cc1)C(=O)Cn1nnc(-c2ccc(C(=O)O)cc2)n1 (centres undefined) | 3.5
5 | CC(Oc1ccc(Oc2ccc(F)cc2)cc1)C(=O)Cn1nnc(-c2ccc(Cl)cc2)n1 (centres undefined) | 6.2
6 | CC(Oc1ccc(Oc2ccc(F)cc2)cc1)C(=O)Cn1nnc(-c2ccc(C(=O)O)cc2)n1 (centres undefined) | 2.7
7 | COC(=O)c1ccc(-c2nnn(CC(=O)C(C)Oc3ccc(-c4ccccc4)cc3)n2)cc1 (centres undefined) | 5.4
8 | CC(Oc1ccc(Oc2ccc(C(F)(F)F)cc2)cc1)C(=O)Cn1nnc(-c2ccc(Cl)cc2)n1 (centres undefined) | 7
9 | COC(=O)c1ccc(-c2nnn(CC(=O)C(C)Oc3ccc(Oc4ccc(Cl)cc4)cc3)n2)cc1 (centres undefined) | 6.1
10 | COC(=O)c1ccc(-c2nnn(CC(=O)C(C)Oc3ccc(Oc4ccc(F)cc4)cc3)n2)cc1 (centres undefined) | 5.4
11 | CC(Oc1ccc(Oc2ccc(C(F)(F)F)cc2)cc1)C(=O)Cn1nnc(-c2ccccc2)n1 (centres undefined) | 6.2

Continued, values first:

Row | logP at 5000 µM | Structure (SMILES)
12 | 8 | CCCCCCCCc1ccc(OCC(=O)Cn2nnc(-c3ccc(C(=O)OC)cc3)n2)cc1
13 | 2.6 | CC(Oc1ccc(-c2ccccc2)cc1)C(=O)Cn1nnc(-c2ccc(C(=O)O)cc2)n1 (centres undefined)
14 | > 8 | CCCCCCCCc1ccc(OC(C)C(=O)Cn2nnc(-c3ccc(C(=O)OC)cc3)n2)cc1 (centres undefined)
15 | > 8 | CCCCCCCCc1ccc(OC(C)C(=O)Cn2nnc(-c3ccc(Cl)cc3)n2)cc1 (centres undefined)
16 | 6.1 | CC(Oc1ccc(-c2ccccc2)cc1)C(=O)Cn1nnc(-c2ccc(Cl)cc2)n1 (centres undefined)
17 | 8 | CCCCCCCCc1ccc(OCC(=O)Cn2nnc(-c3ccccc3)n2)cc1
18 | 5.3 | CCCCCCCCc1ccc(OCC(=O)Cn2nnc(C(=O)O)n2)cc1
19 | > 8 | CCCCCCCCc1ccc(OC(C)C(=O)Cn2nnc(-c3ccccc3)n2)cc1 (centres undefined)
20 | 5.9 | CCCCCCCCc1ccc(OC(C)C(=O)Cn2nnc(-c3ccc(C(=O)O)cc3)n2)cc1 (centres undefined)
21 | 5.3 | CC(Oc1ccc(-c2ccccc2)cc1)C(=O)Cn1nnc(-c2ccccc2)n1 (centres undefined)
22 | > 8 | CCCCCCCCc1ccc(OCC(=O)Cn2nnc(-c3ccc(Cl)cc3)n2)cc1
23 | 6 | CC(Oc1ccc(Oc2ccc(Cl)cc2)cc1)C(=O)Cn1nnc(-c2ccccc2)n1 (centres undefined)
24 | 5.3 | CC(Oc1ccc(Oc2ccc(F)cc2)cc1)C(=O)Cn1nnc(-c2ccccc2)n1 (centres undefined)
